Measured values taken from patent US20140018558A1, “DOCOSAHEXAENOIC ACID (DHA) AS POLYUNSATURATED FREE FATTY ACID IN ITS DIRECTLY COMPRESSIBLE POWDER FORM AND METHOD OF ISOLATION THEREOF” (priority 2011, published 2014).

How the values were obtained:
[1] = Solubility of the isolated DHA powder (physical characterisation); assay type: physicochemical; settings: solvent chloroform; isolated DHA free fatty acid powder
Experimental: Take 1 liter of fish oil. Maintain temperature to 40-45° C. To it add 1-2% methanolic/ethanolic/propanolic/butanolic sodium or potassium hydroxide 1 liter. Stir for ½ an hour. It separates two layers, discard upper layer which contains lower fatty acids and other impurities. Then, to the lower layer add 750 ml of acetone or ethyl or methyl ketone and stir for one hr and keep aside for ½ hour to precipitate DHA. Filter it and wash 2-3 times with equal quantity of acetone. Evaporate and recover the solvent with temperature not exceeding 40 degree C. This leads to drying of the precipitated DHA at room temperature to form the crystalline mass. The same is passed through the sieve to obtain a dry, directly compressible, free flowing powder of polyunsaturated free fatty acid DHA thereof. The DHA is creamish or off-white crystalline solid powder having melting point 60-62 degree C.
Cool fish oil 12 degree C. to solidify all fatty acids in waxy form and separate it from fish oil. Maintain temperature to 40-45° C. In 1 kg waxy fatty acid, add 1 litre ethanolic or methanolic or propanolic or butanolic sodium or potassium hydroxide 1-2% and stir it for ½ an hour. The solution separates the oily layer which contains lower fatty acids and other impurities then, add ethyl acetate:acetone 90:10 to 10:90 to above solvent. It precipitates DHA in solid form. […]

[2] = Stability of DHA powder at room temperature; assay type: physicochemical; settings: powder form, no antioxidants added

Solubility [1]: freely soluble in chloroform | Stability [2]: stable at room temperature
Compound: CC/C=C\C/C=C\C/C=C\C/C=C\C/C=C\C/C=C\CCC(=O)O [DHA, Docosahexaenoic acid]
